These compounds were tested against T1, Somatostatin Receptor 2 (SSTR2) (Homo sapiens, UniProt P30874) (assay: Biochemical Assay for Activation of Somatostatin Receptor 2 (SSTR2), Cisbio HTRF cAMP assay). Conditions: average pEC50; HTRF cAMP assay in stably-transfected cell line expressing SSTR2; cells incubated with compounds for 1-2h.
T1 construct: expressed in transfected cells
Type: cell-based
Procedure: Biochemical Assay for Activation of Somatostatin Receptor 2 (SSTR2)
Agonistic activation of SSTRs leads to an […] production of intracellular cAMP levels. Cisbio's homogeneous time-resolved fluorescence (HTRF) cAMP assay was used to measure cAMP concentration in an high-throughput format. Increase in intracellular cAMP concentrations was measuring using a stably-transfected cell line expressing SSTR2. Test compounds were dissolved in DMSO. Cells were incubated with compounds for 1-2h, and subsequently competitive binding of cAMP produced due to the activation of SSTR2 by the test compounds was measured using the Cisbio cAMP Gs dynamic assay system (Perkin Elmer, Bedford, MA).
The average pEC50 was determined for the test compounds.

T1 sequence (P30874 whole entry, species assumed): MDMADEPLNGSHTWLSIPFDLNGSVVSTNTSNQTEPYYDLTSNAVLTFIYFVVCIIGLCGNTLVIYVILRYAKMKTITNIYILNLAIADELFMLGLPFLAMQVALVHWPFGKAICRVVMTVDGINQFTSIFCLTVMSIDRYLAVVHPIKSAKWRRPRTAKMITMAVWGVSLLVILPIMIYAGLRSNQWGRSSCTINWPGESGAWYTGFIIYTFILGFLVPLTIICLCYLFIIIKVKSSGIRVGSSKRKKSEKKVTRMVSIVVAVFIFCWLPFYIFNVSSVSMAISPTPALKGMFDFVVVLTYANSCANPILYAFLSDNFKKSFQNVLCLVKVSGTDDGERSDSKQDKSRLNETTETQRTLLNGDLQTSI

| EC50 | SMILES |
| --- | --- |
| 1580 nM | COc1cc(F)cc(-c2cnc3[nH]c(-c4ccc5[nH]c(=O)[nH]c5c4)nc3c2N2CCC(N)CC2)c1 [Compound 56] |
| > 10000 nM | CO[C@@H]1CN(c2c(-c3cc(F)cc(F)c3)cnc3c2nc(-c2ccc4[nH]c(=O)[nH]c4c2)n3C)CC[C@H]1N [Compound 25] |
| 398 nM | Cn1c(-c2cccc(Br)c2O)nc2ncc(-c3cc(F)cc(F)c3)c(N3CCC(N)CC3)c21 [Compound 45] |
| 15.8 nM | Cc1cc(F)cc(-c2cnc3c(c2N2CCC(N)CC2)C(=O)N(c2ccc(F)c(F)c2)CC3)c1 [Compound 111] |
| 631 nM | Cc1cc(F)cc(-c2cnc3[nH]c(-c4ccc5[nH]c(=O)[nH]c5c4)nc3c2N2CCC(N)CC2)c1 [Compound 62] |
| 6.31 nM | N#Cc1cccc2c1OCCO[C@H]1CN(CC[C@@H]1N)c1c(-c3cc(F)cc(F)c3)cnc3ccc-2cc13 [Compound 77] |
| 20 nM | Cc1cc(F)cc(-c2cnc3ccc(-c4cccc(C#N)c4O)cc3c2N2CCC(NC(=N)N)CC2)c1 [Compound 136] |
| 1580 nM | NC1CCN(c2c(-c3cc(F)cc(F)c3)cnc3cc(-c4cc(F)cc(F)c4)sc23)CC1 [Compound 133] |
| 7.94 nM | NC1CCN(c2c(-c3cc(F)cc(F)c3)cnc3ccc(C4=CC=CC5(Cl)C(=O)NCCN45)cc23)CC1 (stereo not drawn) [Compound 152] |
| 6310 nM | CN1CCCCNC2CCN(CC2)c2c(-c3cc(F)cc(F)c3)cnc3ccc(cc23)-c2cccnc2C1=O [Compound 85] |
| > 10000 nM | N#Cc1cccc(-c2cc3c(N4CCC(N)CC4)c(-c4cc(F)cc(F)c4)cnc3o2)c1O [Compound 131] |
| 1580 nM | COc1cc(F)cc(-c2cnc3c(nc(-c4cc(F)cc(C(N)=O)c4)n3C)c2N2CCC(N)CC2)c1 [Compound 33] |
| > 10000 nM | Cc1cc(F)cc(-c2cnc3ccc(-c4cccc(C#N)c4O)cc3c2N2CCC(O)CC2)c1 [Compound 164] |
| > 10000 nM | N[C@@H]1CCN(c2c(-c3cc(F)cc(F)c3)cnc3c2C(=O)N(c2ccc(F)c(F)c2)CC3)C1 [Compound 113] |
| 3.16 nM | C=COc1c(C#N)cccc1-c1ccc2ncc(-c3cc(F)cc(F)c3)c(N3CC[C@H](N)[C@@H](O)C3)c2c1 [Compound 153] |
| 2 nM | NC(=O)c1cccc2c1OCCCCNC1CCN(CC1)c1c(-c3cc(F)cc(F)c3)cnc3ccc-2cc13 [Compound 75] |

| EC50 | SMILES |
| --- | --- |
| 0.501 nM | C=CCOc1c(C#N)cccc1-c1ccc2ncc(-c3cc(F)cc(F)c3)c(N3CCC(N)CC3)c2c1 [Compound 142] |
| 3.16 nM | Cc1cc(F)cc(-c2cnc3[nH]c(-c4cccc(Br)c4O)nc3c2N2CCC(N)CC2)c1 [Compound 60] |
| 631 nM | COc1cc(F)cc(-c2cnc3[nH]c(-c4cccc(C#N)c4O)nc3c2N2CCC(N)CC2)c1 [Compound 59] |
| 1000 nM | COc1cc(F)cc(-c2cnc3c(nc(-c4cc(F)cc(C(N)=O)c4)n3C)c2N2CC[C@@H](N)[C@H](OC)C2)c1 [Compound 30] |
| 0.0794 nM | Cc1cc(F)cc(-c2cnc(Cl)c(-c3nc4cc(F)c(F)cc4[nH]3)c2N2CCC(N)CC2)c1 [Compound 104, 1-(2-chloro-3-(5,6-difluoro-1H-benzo[d]imidazol-2-yl)-5-(3-fluoro-5-methylphenyl)pyridin-4-yl)piperidin-4-amine] |
| 631 nM | NC1CCN(c2c(-c3cc(F)cc(F)c3)cnc3sc(-c4cc(F)cc(F)c4)cc23)CC1 [Compound 134] |
| 158 nM | NC1CCN(c2c(-c3cc(F)cc(F)c3)cnc3c2C(=O)N(c2ccc(F)c(F)c2)CC3)CC1 [Compound 110] |
| > 10000 nM | CC(C)(C)OC(=O)NC1CCN(c2c(-c3cc(F)cc(F)c3)cnc3nc(-c4cccc(Br)c4O)[nH]c23)CC1 [Compound 63] |
| > 10000 nM | N#Cc1cccc(-c2ccc3ncc(-c4cc(F)cc(F)c4)c(OC4CCCC(N)C4)c3c2)c1O (stereo not drawn) [Compound 22] |
| > 10000 nM | Cn1c(-c2cccc(C#N)c2O)nc2c(N3CCC(NC(=O)OC(C)(C)C)CC3)c(-c3cc(F)cc(F)c3)cnc21 [Compound 42] |
| > 10000 nM | N#Cc1cccc2c1OCCC(CO)NC1CCN(CC1)c1c(-c3cc(F)cc(F)c3)cnc3ccc-2cc13 (stereo not drawn) [Compound 92] |
| 0.0251 nM | NC1CCN(c2c(-c3cc(F)cc(F)c3)cnc3c(CO)cc(-c4cc(F)cc(F)c4)cc23)CC1 [Compound 160] |
| > 79.4 nM | Cc1cc(F)cc(-c2cnc3c(c2N2CCC(N)CC2)-c2nc4cc(F)c(F)cc4n2CC3)c1 [Compound 107, 1-(9,10-difluoro-2-(3-fluoro-5-methylphenyl)-5,6-dihydrobenzo [4,5]imidazo[2,1-f][1,6]naphthyridin-1-yl)piperidin-4-amine] |
| 316 nM | Cc1cc(F)cc(-c2cnc3c(nc(-c4cccc(C#N)c4O)n3C)c2N2CCC(N)CC2)c1 [Compound 37] |
| 6310 nM | NC1CCN(c2c(-c3nc4cc(F)c(F)cc4[nH]3)cnc3ncc4ccc(F)cc4c23)CC1 [Compound 120] |

Continued, compound first:

| SMILES | EC50 |
| --- | --- |
| Cc1cc(F)cc(-c2cnc3ccc4cc3c2N2CCC(CC2)NC[C@H](O)CCOc2c(C#N)cccc2-4)c1 (single isomer, unassigned) [Compound 101] | 1580 nM |
| CNCCCn1c(=O)n(-c2ccc(F)c(F)c2)c(=O)c2cncc(-c3cc(F)cc(F)c3)c21 [Compound 118] | > 10000 nM |
| N#Cc1cccc(-c2ccc3ncc(-c4cc(F)cc(F)c4)c(C4=CCC(N)CC4)c3c2)c1O (stereo not drawn) [Compound 125] | 5.01 nM |
| Cc1cc(F)cc(-c2cnc3ccc4cc3c2N2CCC(CC2)NCC(N)CCOc2c(C#N)cccc2-4)c1 (stereo not drawn) [Compound 95, 7-amino-23-(3-fluoro-5-methylphenyl)-4-oxa-9-aza-2(4,6)-quinolina-1(1,4)-piperidina-3(1.2)-benzenacyclononaphane-33-carbonitrile] | 7.94 nM |
| Cc1cc(F)cc(-c2cnc3ccc(-c4cc(F)cc(C(N)=O)c4)cc3c2O[C@@H]2CC[C@@H](N)C2)c1 [Compound 4] | 0.398 nM |
| N[C@@H]1CC[C@H](Oc2c(-c3cc(F)cc(F)c3)cnc3ccc(-c4cc(F)cc(F)c4)cc23)C1 [Compound 12, (1R,3S)-3-((3,6-bis(3,5-difluorophenyl)quinolin-4-yl)oxy) cyclopentanamine] | 15.8 nM |
| Cc1cc(F)cc(-c2cnc3ccc(-c4cc(F)cc(C(N)=O)c4)cc3c2OC2CCCC(CN)C2)c1 (stereo not drawn) [Compound 21] | 20 nM |
| COc1cc(F)cc(-c2cnc3ccc(-c4cc(F)cc(C(N)=O)c4)cc3c2O[C@@H]2CC[C@H](N)C2)c1 [Compound 5] | 3.16 nM |
| NC(=O)c1cc(F)cc(-c2ccc3ncc(-c4cc(F)cc(F)c4)c(O[C@@H]4CC[C@H](N)C4)c3c2)c1 [Compound 10] | 10 nM |
| Cc1cc(F)cc(-c2cnc3ccc4cc3c2N2CCC(CC2)NCC[C@@H](N=[N+]=[N-])COc2c(C#N)cccc2-4)c1 (single isomer, unassigned) [Compound 96] | 0.794 nM |
| NCCCn1c(=O)n2c3ccccc3cc2c2cncc(-c3cc(F)cc(F)c3)c21 [Compound 105, 5-(3-aminopropyl)-4-(3,5-difluorophenyl)pyrido[4′,3′:4,5]pyrimido [1,6-a]indol-6(5H)-one] | > 10000 nM |
| Fc1cc(F)cc(-c2cnc3ccc4cc3c2N2CCC(CC2)NCCCCOc2cccc-4c2)c1 [Compound 68] | 7.94 nM |
| N[C@H]1CC[C@@H](Oc2c(-c3cc(F)cc(F)c3)cnc3ccc(-c4ccc5[nH]c(=O)[nH]c5c4)cc23)C1 [Compound 11] | 398 nM |
| O=C1NCCCCNC2CCN(CC2)c2c(-c3cc(F)cc(F)c3)cnc3ccc(cc23)-c2cccnc21 [Compound 84] | > 10000 nM |
| N[C@H]1CC[C@H](Oc2c(-c3cc(F)cc(F)c3)cnc3ccc(-c4cc(F)cc(F)c4)cc23)C1 [Compound 15] | 12.6 nM |
| CN1CCCCNC2CCN(CC2)c2c(-c3cc(F)cc(F)c3)cnc3ccc(cc23)-c2cccc(c2)C1=O [Compound 81, 23-(3,5-difluorophenyl)-5-methyl-5, 10-diaza-2(4, 6)-quinolina-1(1, 4)-piperidina-3(1,3)-benzenacyclodecaphan-4-one] | 2000 nM |
| Cc1cc(F)cc(-c2cnc3ccc(-c4cc(F)cc(C(N)=O)c4)cc3c2O[C@H]2C[C@@H](N)C2)c1 [Compound 18] | 12.6 nM |
| CN1c2c(cnc3ccc(-c4cc(F)cc(F)c4)cc23)-c2cc(F)cc(F)c2C1CCN (stereo not drawn) [Compound 157] | 10 nM |
| NC1CCN(c2c(-c3nc4cc(F)c(F)cc4[nH]3)cnc3c2-c2cc(F)ccc2CO3)CC1 [Compound 121, 1-(2-(5,6-difluoro-1H-benzo[d]imidazol-2-yl)-9-fluoro-6H-isochromeno[3,4-b]pyridin-1-yl)piperidin-4-amine] | 631 nM |
| Cc1cc(F)cc(-c2cnc3ccc(-c4cc(F)cc(C(N)=O)c4)cc3c2O[C@@H]2CC[C@H](N)C2)c1 [Compound 2] | 1 nM |
| Cc1cc(F)cc(-c2cnc3ccc(-c4cc(F)cc(C(N)=O)c4)cc3c2O[C@H]2CC[C@H](N)C2)c1 [Compound 1, 3-(4-(((1S,3S)-3-aminocyclopentyl)oxy)-3-(3-fluoro-5-methylphenyl)quinolin-6-yl)-5-fluorobenzamide] | 0.316 nM |
| N#Cc1cccc2c1OCCCCCNC1CCN(CC1)c1c(-c3cc(F)cc(F)c3)cnc3ccc-2cc13 [Compound 71] | 0.158 nM |
| COc1cc(F)cc(-c2cnc3[nH]c(-c4ccc5[nH]c(=O)[nH]c5c4)nc3c2N2CC[C@@H](N)[C@H](OC)C2)c1 [Compound 49] | > 10000 nM |
| Cc1cc(F)cc(-c2cnc3ccc(-c4cccc(C#N)c4O)cc3c2N2CCC(=O)CC2)c1 [Compound 163] | > 10000 nM |
| N#Cc1cccc2c1OCCOCCNC1CCN(CC1)c1c(-c3cc(F)cc(F)c3)cnc3ccc-2cc13 [Compound 70] | 0.794 nM |
| Cc1cc(F)cc(-c2cnc3ccc4cc3c2N2CCC(CC2)NCC[C@H](N=[N+]=[N-])COc2c(C#N)cccc2-4)c1 (single isomer, unassigned) [Compound 97] | 2.51 nM |

— patent US20260053794A1, “SOMATOSTATIN RECEPTOR 2 AGONISTS AND USES THEREOF” (Exelixis, Inc., priority 2022, published 2026)
